Assay results: US5444174A, “16-membered macrolide derivative having sustained antibacterial activity in plasma, synthesis intermediate thereof and process for producing the same” (Meiji Seika Kaisha, Ltd., priority 1992, dated 1995)
≈ marks a conversion by molar mass, not a printed value. Like-named read-outs stand apart in the source and are kept apart here.

What was measured:
Type in all cases: cell-based
[1] = test system: gram-positive bacteria; test: Antibacterial activities against gram-positive bacteria (summary of Table 1); details: in words, vs miokamycin
Protocol: (§1) Antibacterial activities of the compounds of formula (I) are shown in Table 1 in terms of minimum inhibitory concentration (MIC).
(§2) Minimum inhibitory concentration was determined by the agar plate dilution method. Test strains were subjected to seed culture using Sensitivity test broth (STB, Nissui Pharmaceutical) except that the strains belonging to the genus Streptococcus, Branhamella and Haemophilus were cultured on blood agar plate. A 5 μl portion of cell suspension of the test strains having about 10^6 CFU/ml was inoculated into Sensitivity disk agar (SDA, Nissui Pharmaceutical) supplemented with 5% horse blood and incubated at 37° C. for 20 hours. Then, MIC was measured.

[2] = test system: S. pneumoniae Type 1; test: Antibacterial activity (MIC), agar plate dilution method; details: Streptococcus pneumoniae, TYPE1, 37° C., 20 hours, blood agar seed culture
Protocol: as §1, §2

[3] = test system: K. pneumoniae PC1602; test: as above; details: Klebsiella pneumoniae, 37° C., 20 hours
Protocol: as §1, §2

[4] = test system: B. catarrhalis W-0500; test: as above; details: Moraxella catarrhalis, read-out: Antibacterial activity (MIC)
Protocol: as §1, §2

[5] = test system: Sta. aureus MS15009/pMS98; test: as above; details: Staphylococcus aureus, MS15009/PMS98, 20 h, read-out: Antibacterial activity (MIC)
Protocol: as §1, §2

[6] = test system: Sta. aureus M126; test: as above; details: Staphylococcus aureus, 37° C., 20 hours
Protocol: as §1, §2

[7] = test system: B. catarrhalis W-0506; test: as above; details: Moraxella catarrhalis, read-out: Antibacterial activity (MIC)
Protocol: as §1, §2

[8] = test system: S. Pyogenes Cook; test: as above; details: Streptococcus pyogenes, 37° C., 20 hours, blood agar seed culture
Protocol: as §1, §2

[9] = test system: S. pneumoniae IP692; test: as above; details: Streptococcus pneumoniae, 37° C., 20 hours, blood agar seed culture
Protocol: as §1, §2

[10] = test system: Sta. aureus 209P JC-1; test: as above; details: Staphylococcus aureus, 37° C., 20 hours
Protocol: as §1, §2

[11] = test system: Sta. aureus MS15027; test: as above; details: Staphylococcus aureus, read-out: Antibacterial activity (MIC)
Protocol: as §1, §2

[12] = test system: M. luteus ATCC 9341; test: as above; details: Micrococcus luteus, ATCC9341, 37° C., 20 hours
Protocol: as §1, §2

[13] = test system: E. coli NIHJ JC-2; test: as above; details: Escherichia coli, NIHJJC2, 37° C., 20 hours
Protocol: as §1, §2

[14] = test system: Ent. faecalis W-73; test: as above; details: Enterococcus faecalis, W73, 37° C., 20 hours
Protocol: as §1, §2

[15] = test system: Sta. aureus MS15026; test: as above; details: Staphylococcus aureus, 37° C., 20 hours
Protocol: as §1, §2

[16] = test system: Sta. aureus M133; test: as above; details: Staphylococcus aureus, read-out: Antibacterial activity (MIC)
Protocol: as §1, §2

[17] = test system: Sta. aureus MS15009/pMS99; test: as above; details: Staphylococcus aureus, MS15009/PMS99, 20 h, read-out: Antibacterial activity (MIC)
Protocol: as §1, §2

[18] = test system: Sta. epidermidis ATCC 14990; test: as above; details: Staphylococcus epidermidis, read-out: Antibacterial activity (MIC)
Protocol: as §1, §2

[19] = test system: H. influenza 9334; test: as above; details: 37° C., 20 hours, blood agar seed culture
Protocol: as §1, §2

[20] = W0500, 37° C., 20 hours, blood agar seed culture, B. catarrhalis W-0500
[21] = W0506, 37° C., 20 hours, blood agar seed culture, B. catarrhalis W-0506
[22] = 37° C., 20 hours, Sta. aureus MS15027
[23] = 37° C., 20 hours, Sta. aureus M133
[24] = ATCC14990, 37° C., 20 hours, Sta. epidermidis ATCC 14990

SMILES	MIC [2]	MIC [3]	MIC [4, 20]	MIC [5]	MIC [6]	MIC [7, 21]	MIC [8]	MIC [9]	MIC [10]	MIC [11, 22]	MIC [12]	MIC [13]	MIC [14]	MIC [15]	MIC [16, 23]	MIC [17]	MIC [18, 24]	MIC [19]	further results
CCCCO[C@H]1[C@H](C)O[C@@H](O[C@H]2[C@H](N(C)C)[C@@H](O)[C@H](O[C@H]3[C@@H](CC=O)C[C@@H](C)C(=O)/C=C/C=C/C[C@@H](C)OC(=O)C[C@@H](OC(=O)CC)[C@@H]3OC)O[C@@H]2C)C[C@@]1(C)OC [Compound (41)]	0.2 µg/mL (≈ 0.242 µM)	> 100 µg/mL	0.78 µg/mL (≈ 0.944 µM)	0.39 µg/mL (≈ 0.472 µM)	> 100 µg/mL	0.78 µg/mL (≈ 0.944 µM)	0.1 µg/mL (≈ 0.121 µM)	0.1 µg/mL (≈ 0.121 µM)	0.2 µg/mL (≈ 0.242 µM)	0.78 µg/mL (≈ 0.944 µM)	0.05 µg/mL (≈ 0.0605 µM)	> 100 µg/mL	3.13 µg/mL (≈ 3.79 µM)	> 100 µg/mL	0.78 µg/mL (≈ 0.944 µM)	> 100 µg/mL	1.56 µg/mL (≈ 1.89 µM)	6.25 µg/mL (≈ 7.57 µM)	antibacterial activities compared with miokamycin [1]: excellent antibacterial activities exceeding that of miokamycin
CCCCCCO[C@H]1[C@H](C)O[C@@H](O[C@H]2[C@H](N(C)C)[C@@H](O)[C@H](O[C@H]3[C@@H](CC=O)C[C@@H](C)C(=O)/C=C/C=C/C[C@@H](C)OC(=O)C[C@@H](OC(=O)CC)[C@@H]3OC)O[C@@H]2C)C[C@@]1(C)OC [Compound (42)]	0.2 µg/mL (≈ 0.234 µM)	> 100 µg/mL		1.56 µg/mL (≈ 1.83 µM)	> 100 µg/mL		0.2 µg/mL (≈ 0.234 µM)	0.2 µg/mL (≈ 0.234 µM)	0.78 µg/mL (≈ 0.913 µM)		0.1 µg/mL (≈ 0.117 µM)	> 100 µg/mL	6.25 µg/mL (≈ 7.32 µM)	> 100 µg/mL		> 100 µg/mL		12.5 µg/mL (≈ 14.6 µM)	MIC ([4]; W0500, 20 h): 1.56 µg/mL (≈ 1.83 µM); MIC ([7]; W0506, 20 h): 1.56 µg/mL (≈ 1.83 µM); MIC ([11]; MS15027, 20 h): 1.56 µg/mL (≈ 1.83 µM); MIC ([16]; M133, 20 h): 1.56 µg/mL (≈ 1.83 µM); MIC ([18]; ATCC14990, 20 h): 1.56 µg/mL (≈ 1.83 µM)
CCC(=O)O[C@@H]1CC(=O)O[C@H](C)C/C=C/C=C/C(=O)[C@H](C)C[C@H](CC=O)[C@H](O[C@@H]2O[C@H](C)[C@@H](O[C@H]3C[C@@](C)(OC)[C@@H](OCCCC(C)C)[C@H](C)O3)[C@H](N(C)C)[C@H]2O)[C@H]1OC [Compound (43)]	0.2 µg/mL (≈ 0.234 µM)	> 100 µg/mL	1.56 µg/mL (≈ 1.83 µM)	0.78 µg/mL (≈ 0.913 µM)	> 100 µg/mL	1.56 µg/mL (≈ 1.83 µM)	0.05 µg/mL (≈ 0.0585 µM)	0.2 µg/mL (≈ 0.234 µM)	0.39 µg/mL (≈ 0.457 µM)	1.56 µg/mL (≈ 1.83 µM)	0.05 µg/mL (≈ 0.0585 µM)	> 100 µg/mL	3.13 µg/mL (≈ 3.66 µM)	> 100 µg/mL	1.56 µg/mL (≈ 1.83 µM)	> 100 µg/mL	1.56 µg/mL (≈ 1.83 µM)	12.5 µg/mL (≈ 14.6 µM)	
CCC(=O)O[C@@H]1CC(=O)O[C@H](C)C/C=C/C=C/C(=O)[C@H](C)C[C@H](CC=O)[C@H](O[C@@H]2O[C@H](C)[C@@H](O[C@H]3C[C@@](C)(OC)[C@@H](OCc4ccccc4)[C@H](C)O3)[C@H](N(C)C)[C@H]2O)[C@H]1OC [Compound (44)]	0.2 µg/mL (≈ 0.233 µM)	> 100 µg/mL	1.56 µg/mL (≈ 1.81 µM)	0.78 µg/mL (≈ 0.907 µM)	> 100 µg/mL	1.56 µg/mL (≈ 1.81 µM)	0.2 µg/mL (≈ 0.233 µM)	0.2 µg/mL (≈ 0.233 µM)	0.2 µg/mL (≈ 0.233 µM)	1.56 µg/mL (≈ 1.81 µM)	0.1 µg/mL (≈ 0.116 µM)	> 100 µg/mL	1.56 µg/mL (≈ 1.81 µM)	> 100 µg/mL	1.56 µg/mL (≈ 1.81 µM)	> 100 µg/mL	3.13 µg/mL (≈ 3.64 µM)	6.25 µg/mL (≈ 7.27 µM)	
